From patent US20260034111A1, “NOVEL HETEROCYCLES AS sPLA2-X INHIBITORS” (Cayman Chemical Company Incorporated, priority 2022, published 2026)
Where a name gives a salt, the structure may show the parent alone. Read-outs that look alike come from different tables or passages of the source.

Experiments:
Assay type in all cases: biochemical
Details in all cases: class symbols
[1] = target: T1, recombinant human sPLA2-IIA enzyme (Homo sapiens, UniProt P14555); assay: sPLA2-IIA enzyme inhibition assay (thio-PC substrate, DTNB detection, absorbance 410 nm)
T1 construct: made in house; host or cells: E. coli
T1 sequence (P14555 21-144): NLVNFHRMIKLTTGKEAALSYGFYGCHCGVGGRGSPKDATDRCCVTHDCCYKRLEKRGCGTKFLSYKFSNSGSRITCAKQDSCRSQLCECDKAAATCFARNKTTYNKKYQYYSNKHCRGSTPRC
Description: (§1) Screening Compounds for Inhibition of sPLA2-X, sPLA2-V, and sPLA2-IIA Enzyme Activity
(§2) These sPLA2 enzymes hydrolyze the sn-2 acyl chains of glycerophospholipids, resulting in the release of a free fatty acid and a lysophospholipid. In the case of the thio-PC substrate, this enzymatic hydrolysis results in a free sulfhydryl group remaining on the lysophospholipid. This free sulfhydryl reacts with DTNB to produce the chromogenic product 5-nitro-2-thiobenzoic acid (TNB) which can be quantitated by absorbance at 410 nm. The amount of TNB produced reflects the hydrolytic activity of the enzyme.
(§3) The recombinant human sPLA2 groups IIA, V, and X enzymes were expressed in E. coli and purified to >90% purity by standard biochemical methods.
(§4) Procedure of Enzyme Inhibition for sPLA2-X • 1. […] Dilute the test compounds in 100% DMSO by half-log steps in a 96-well dilution plate using columns 1-11 (one compound per row). Column 12 contains DMSO alone with no compound. • 3. Prepare a 3.5 mM thio-PC substrate solution by drying down 7.2 mg of stock thio-PC in ethanol under a gentle stream of N2 gas. When dry, add 4 mL assay buffer (25 mM Tris, pH7.4; 100 mM KCl; 10 mM CaCl2; 0.1% Triton X-100) and warm in a 37° C. water bath for 20 minutes with intermittent vortexing. • 4. Prepare an “enzyme containing” reaction mix with the following components: 20.4 mL assay buffer; 2 mL DTNB (20 mM in 800 mM Tris, pH8.0); and 11.8 mg recombinant human sPLA2-X enzyme (>95% pure) diluted to a total of 0.8 mL assay buffer. • 5. Prepare a “no enzyme” reaction mix with the following components: 477 μL assay buffer and 45 μL DTNB. • 6. Dispense 58 μL “no enzyme” reaction mix into each of 8 wells (columns 23 and 24, rows M-P). • 7. Dispense 58 μL “enzyme containing” reaction mix into all remaining wells on the plate. • 8. From the 96-well compound dilution plate, add 2 μL from each well for each compound to each of 4 wells with “enzyme containing” reaction mix. Columns 23 and 24 on the assay plate will contain only DMSO (vehicle control). […] After compound addition, mix the contents of each well to ensure that the DMSO is evenly distributed in the well. • 9. Cover the plate and incubate in the dark at room temperature for 15 minutes. • 10. Add 10 μL of thio-PC substrate to all wells. The final concentration of thio-PC in the reactions is 0.5 mM. • 11. Cover the plate and incubate in the dark at room temperature for 30 minutes. • 12. Measure the absorbance of all wells at 410 nm. • 13. Determine the mean absorbance of the “no enzyme” wells. Subtract this value from the absorbance values determined for all other wells (these are now background corrected data). • 14. […] Procedure of Enzyme Inhibition for sPLA2-V • 1. […] Dilute the test compounds in 100% DMSO by half-log steps in a 96-well dilution plate using columns 1-11. Column 12 contains DMSO alone with no compound. • 3. Prepare a 3.5 mM thio-PC substrate solution by drying down 7.2 mg of stock thio-PC in ethanol under a gentle stream of N2 gas. When dry, add 4 mL assay buffer (25 mM Tris, pH7.4; 100 mM KCl; 10 mM CaCl2; 0.1% Triton X-100) and warm in a 37° C. water bath for 20 minutes with intermittent vortexing. • 4. Prepare an “enzyme containing” reaction mix with the following components: 20.4 mL assay buffer; 2 mL DTNB (20 mM in 800 mM Tris, pH8.0); and 12 mg recombinant human sPLA2-V enzyme (>95% pure) diluted to a total of 0.8 mL assay buffer. • 5. Prepare a “no enzyme” reaction mix with the following components: 477 μL assay buffer and […]. • 6. Dispense 58 μL “no enzyme” reaction mix into each of 8 wells (columns 23 and 24, rows M-P). • 7. Dispense 58 μL “enzyme containing” reaction mix into all remaining wells on the plate. • 8. From the 96-well compound dilution plate, add 2 μL from each well for each compound to each of 4 wells with “enzyme containing” reaction mix. Columns 23 and 24 on the assay plate will contain only DMSO (vehicle control).

[2] = target: T2, recombinant human sPLA2-V enzyme (Homo sapiens, UniProt P39877); assay: sPLA2-V enzyme inhibition assay (thio-PC substrate, DTNB detection, absorbance 410 nm)
T2 construct: made in house; host or cells: E. coli
T2 sequence (P39877 21-138): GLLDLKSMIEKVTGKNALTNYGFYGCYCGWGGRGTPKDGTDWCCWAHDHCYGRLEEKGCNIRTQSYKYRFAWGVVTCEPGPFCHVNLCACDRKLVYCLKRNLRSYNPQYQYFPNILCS
Description: as §1, §2, §3, §4

sPLA2-X protein = target: T3, sPLA2-X protein (Homo sapiens, UniProt O15496); assay: sPLA2-X enzyme inhibition assay (thio-PC substrate, DTNB detection, absorbance 410 nm); set-up: made in house; host or cells: E. coli
T3 sequence (O15496 43-165): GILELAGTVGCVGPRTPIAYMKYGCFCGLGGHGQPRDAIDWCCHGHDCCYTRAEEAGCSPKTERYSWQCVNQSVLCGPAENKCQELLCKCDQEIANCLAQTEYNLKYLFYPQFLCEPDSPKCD
Description: as §1, §2, §3, §4

[3] = read-out: sPLA2 Type IIa Inhibition (IC50; nM)
[4] = read-out: sPLA2 Type V Inhibition (IC50; nM)
[5] = read-out: sPLA2 Type X Inhibition (IC50; nM)
[6] = sPLA2 Type X Inhibition (IC50; nM)

IC50 [1, 3] | IC50 [2, 4] | IC50 (sPLA2-X protein; [5]) | Structure (SMILES) | IC50 ([1]; sPLA2 Type IIa Inhibition (IC50; nM)) | IC50 ([2]; sPLA2 Type V Inhibition (IC50; nM)) | IC50 (sPLA2-X protein; [6])
> 1000 nM | > 5000 nM | 50 to 200 nM | NC(=O)c1cc2ccc(OC(F)(F)F)cc2n1-c1cncc(CCC(=O)O)c1 [Compound 53] |  |  | 
> 1000 nM | > 5000 nM | < 20 nM | NC(=O)c1cc2ccc(OC(F)(F)F)cc2n1-c1cccc(C2(CC(=O)O)CC2)n1 [Compound 59, 2-(1-(6-(2-carbamoyl-6-(trifluoromethoxy)-1H-indol-1-yl)pyridin-2-yl)cyclopropyl)acetic acid] |  |  | 
> 1000 nM | < 500 nM | < 20 nM | NC(=O)c1cc2ccc(OC(F)(F)F)cc2n1-c1cccc(C2(CC(=O)O)CC2)c1 [Compound 31, 2-(1-(3-(2-carbamoyl-6-(trifluoromethoxy)-1H-indol-1-yl)phenyl)cyclopropyl)acetic acid] |  |  | 
 |  |  | NC(=O)c1[se]c2ccc(OC(F)(F)F)cc2c1-c1cccc(C2CC2C(=O)O)n1 (stereo not drawn) [Compound 57, trans-2-(6-(2-carbamoyl-5-(trifluoromethoxy)benzo[b]selenophen-3-yl)pyridin-2-yl)cyclopropane-1-carboxylic acid] | > 1000 nM | > 5000 nM | 50 to 200 nM
> 1000 nM | 1500 to 5000 nM | 50 to 200 nM | NC(=O)c1cc2ccc(OC(F)(F)F)cc2n1-c1cccc(N2CC(C(=O)O)C2)n1 [Compound 52, 1-(6-(2-carbamoyl-6-(trifluoromethoxy)-1H-indol-1-yl)pyridin-2-yl)azetidine-3-carboxylic acid] |  |  | 
> 1000 nM | > 5000 nM | 50 to 200 nM | NC(=O)c1cc2ccc(OC(F)(F)F)cc2n1-c1ccc2c(c1)C(CC(=O)O)CO2 (single isomer, unassigned; (+)) [Compound 1a, (+)-2-(5-(2-carbamoyl-6-(trifluoromethoxy)-1H-indol-1-yl)-2,3-dihydrobenzofuran-3-yl)acetic acid] |  |  | 
> 1000 nM | > 5000 nM | > 200 nM | CC(C)(C)OC(=O)NCc1cccc(-n2c(C(N)=O)cc3ccc(OC(F)(F)F)cc32)n1 [Compound 26, tert-butyl ((6-(2-carbamoyl-6-(trifluoromethoxy)-1H-indol-1-yl)pyridin-2-yl)methyl)carbamate] |  |  | 
200 to 500 nM | 1500 to 5000 nM | 20 to 50 nM | NC(=O)c1cc2ccc(OC(F)(F)F)cc2n1-c1cccc(C2CC2C(=O)O)n1 (racemic) [Compound 28c, cis-(rac)-2-(6-(2-carbamoyl-6-(trifluoromethoxy)-1H-indol-1-yl)pyridin-2-yl)cyclopropane-1-carboxylic acid] |  |  | 
> 1000 nM | > 5000 nM | > 200 nM | CNC(=O)c1cc2ccc(OC(F)(F)F)cc2n1-c1cccc(CCC(=O)O)c1 [Compound 14, 3-(3-(2-(methylcarbamoyl)-6-(trifluoromethoxy)-1H-indol-1-yl)phenyl)propanoic acid] |  |  | 
> 1000 nM | > 5000 nM | 50 to 200 nM | NC(=O)c1cc2ccc(OC(F)(F)F)cc2n1-c1ccc2c(c1)C(CC(=O)O)CO2 (stereo not drawn) [Compound 1, 2-(5-(2-carbamoyl-6-(trifluoromethoxy)-1H-indol-1-yl)-2,3-dihydrobenzofuran-3-yl)acetic acid] |  |  | 
> 1000 nM | 1500 to 5000 nM | < 20 nM | NC(=O)c1cc2ccc(OC(F)(F)F)cc2n1-c1cccc(C2(CC(=O)O)CCC2)c1 [Compound 30, 2-(1-(3-(2-carbamoyl-6-(trifluoromethoxy)-1H-indol-1-yl)phenyl)cyclobutyl)acetic acid] |  |  | 
> 1000 nM | > 5000 nM | > 200 nM | CC(C)(C)OC(=O)NC1(c2cccc(-n3c(C(N)=O)cc4ccc(OC(F)(F)F)cc43)n2)CCC1 [Compound 48, tert-butyl (1-(6-(2-carbamoyl-6-(trifluoromethoxy)-1H-indol-1-yl)pyridin-2-yl)cyclobutyl)carbamate] |  |  | 
> 1000 nM | > 5000 nM | > 200 nM | NC(=O)c1cc2ccc(OC(F)(F)F)cc2n1-c1ccc2occ(C(=O)O)c2c1 [Compound 20, 5-(2-carbamoyl-6-(trifluoromethoxy)-1H-indol-1-yl)benzofuran-3-carboxylic acid] |  |  | 
> 1000 nM | > 5000 nM | > 200 nM | NC(=O)c1cc2ccc(OC(F)(F)F)cc2n1-c1cccc(C[C@@H](N)C(=O)O)c1 [Compound 23, (R)-2-amino-3-(3-(2-carbamoyl-6-(trifluoromethoxy)-1H-indol-1-yl)phenyl)propanoic acid TFA salt] |  |  | 
> 1000 nM | > 5000 nM | > 200 nM | NC(=O)c1cc2ccc(OC(F)(F)F)cc2n1-c1cccc(CNC(=O)C(F)(F)F)n1 [Compound 37, 1-(6-((2,2,2-trifluoroacetamido)methyl)pyridin-2-yl)-6-(trifluoromethoxy)-1H-indole-2-carboxamide] |  |  | 
500 to 1000 nM | 500 to 1500 nM | 20 to 50 nM | NC(=O)c1cc2ccc(OC(F)(F)F)cc2n1-c1cccc(CC2(C(=O)O)CCC2)c1 [Compound 10, 1-(3-(2-carbamoyl-6-(trifluoromethoxy)-1H-indol-1-yl)benzyl)cyclobutane-1-carboxylic acid] |  |  | 
> 1000 nM | 1500 to 5000 nM | 50 to 200 nM | NC(=O)c1cc2ccc(OC(F)(F)F)cc2n1-c1cccc(C2CC2C(=O)O)n1 (single isomer, unassigned) [Compound 28d, cis-(−)-2-(6-(2-carbamoyl-6-(trifluoromethoxy)-1H-indol-1-yl)pyridin-2-yl)cyclopropane-1-carboxylic acid] |  |  | 
> 1000 nM | > 5000 nM | > 200 nM | NCc1cccc(-n2c(C(N)=O)cc3ccc(OC(F)(F)F)cc32)n1 [Compound 27, 1-(6-(aminomethyl)pyridin-2-yl)-6-(trifluoromethoxy)-1H-indole-2-carboxamide TFA salt] |  |  | 
> 1000 nM | > 5000 nM | 50 to 200 nM | NC(=O)c1cc2ccc(OC(F)(F)F)cc2n1-c1ccc2oc(C(=O)O)cc2c1 [Compound 16, 5-(2-carbamoyl-6-(trifluoromethoxy)-1H-indol-1-yl)benzofuran-2-carboxylic acid] |  |  | 

Structure (SMILES) | IC50 [1, 3] | IC50 [2, 4] | IC50 (sPLA2-X protein; [5]) | IC50 ([1]; sPLA2 Type IIa Inhibition (IC50; nM)) | IC50 ([2]; sPLA2 Type V Inhibition (IC50; nM)) | IC50 (sPLA2-X protein; [6])
NC(=O)c1[se]c2ccc(OC(F)(F)F)cc2c1-c1cccc(CCC(=O)O)c1 [Compound 29, 3-(3-(2-carbamoyl-5-(trifluoromethoxy)benzo[b]selenophen-3-yl)phenyl)propanoic acid] | 500 to 1000 nM | 1500 to 5000 nM |  |  |  | 50 to 200 nM
